Measured values reported in patent publication US20240057606A1, “MOLECULES HAVING CERTAIN PESTICIDAL UTILITIES, AND INTERMEDIATES, COMPOSITIONS, AND PROCESSES RELATED THERETO” (priority 2020, published 2024).

Tests used:
Assay type in all cases: in vivo
[1] = test system: Cabbage Looper (Trichoplusia ni, "CL"); experiment: Bioassay on cabbage looper, 128-well diet tray assay; details: 168 h, 50 μg/cm^2 of test compound on artificial diet, second instar larvae, 25° C., five to seven days, average of eight wells, read-out: CL % Control (or Mortality) rating
Protocol: (§1) Bioassays on Beet Armyworm (Spodoptera exigua, “BAW”) and Cabbage Looper (Trichoplusia ni, “CL”)
(§2) Certain molecules disclosed in this document were tested against BAW and CL using procedures described in the following examples. In the reporting of the results, the “BAW & CL Rating Table” was used (See Table Section).
Bioassays on CL were conducted using a 128-well diet tray assay. one to five second instar CL larvae were placed in each well (3 mL) of the diet tray that had been previously filled with 1 mL of artificial diet to which 50 μg/cm^2 of the test compound (dissolved in 50 μL of 90:10 acetone-water mixture) had been applied (to each of eight wells) and then allowed to dry. Trays were covered with a clear self-adhesive cover and held at 25° C., 14:10 light-dark cycle for five to seven days. Percent mortality was recorded for the larvae in each well; activity in the eight wells was then averaged. The results are indicated in the table entitled “Table ABC: Biological Results” (See Table Section).

[2] = test system: Beet Armyworm (Spodoptera exigua, "BAW"); experiment: Bioassay on beet armyworm, 128-well diet tray assay; details: 168 h, 50 μg/cm^2 of test compound on artificial diet, second instar larvae, 25° C., five to seven days, average of eight wells, read-out: BAW % Control (or Mortality) rating
Protocol: as §1, §2
Bioassays on BAW were conducted using a 128-well diet tray assay. one to five second instar BAW larvae were placed in each well (3 mL) of the diet tray that had been previously filled with 1 mL of artificial diet to which 50 μg/cm^2 of the test compound (dissolved in 50 μL of 90:10 acetone-water mixture) had been applied (to each of eight wells) and then allowed to dry. Trays were covered with a clear self-adhesive cover and held at 25° C., 14:10 light-dark cycle for five to seven days. Percent mortality was recorded for the larvae in each well; activity in the eight wells was then averaged. The results are indicated in the table entitled “Table ABC: Biological Results” (See Table Section).

[3] = test system: Yellow Fever Mosquito (Aedes aegypti, "YFM"); experiment: Bioassay on yellow fever mosquito larvae, 96-well plate assay; details: 4000 ppm DMSO master solution diluted with 90:10 water:acetone; about 1 day-old larvae; room temperature; scored after 3 days
Protocol: Bioassays On Yellow Fever Mosquito (Aedes aegypti, “YFM”)
Certain molecules disclosed in this document were tested against YFM using procedures described in the following paragraph. In the reporting of the results, the “YFM Rating Table” was used (See Table Section).
Master plates containing 400 μg of a molecule dissolved in 100 μL of dimethyl sulfoxide (DMSO) (equivalent to a 4000 ppm solution) are used. A master plate of assembled molecules contains 15 μL per well. To this plate, 135 μL of a 90:10 water:acetone mixture is added to each well. A robot (Biomek® NXP Laboratory Automation Workstation) is programmed to dispense 15 μL aspirations from the master plate into an empty 96-well shallow plate (“daughter” plate). There are 6 reps (“daughter” plates) created per master. The created daughter plates are then immediately infested with YFM larvae.
The day before plates are to be treated, mosquito eggs are placed in Millipore water containing liver powder to begin hatching (4 g. into 400 mL). After the daughter plates are created using the robot, they are infested with 220 μL of the liver powder/larval mosquito mixture (about 1 day-old larvae). After plates are infested with mosquito larvae, a non-evaporative lid is used to cover the plate to reduce drying. Plates are held at room temperature for 3 days prior to grading. After 3 days, each well is observed and scored based on mortality.

Row | Compound | mortality at 50 µg/cm2 [1] [%] | mortality at 50 µg/cm2 [2] [%] | YFM % Control (or Mortality) rating [3]
1 | O=C(/N=C1\SCC(=O)N1c1cccc2c1COC2)Nc1ccc(-c2ncn(-c3ccc(OC(F)(F)F)cc3)n2)cc1F [F8, (Z)-1-(3-(1,3-Dihydroisobenzofuran-4-yl)-4-oxothiazolidin-2-ylidene)-3-(2-fluoro-4-(1-(4-(trifluoromethoxy)phenyl)-1H-1,2,4-triazol-3-yl)phenyl)urea] | 50 to 100 | 50 to 100 | –
2 | O=C(/N=C1\SCC(=O)N1c1cccc2c1COC2=O)Nc1ccc(-c2ncn(-c3ccc(OC(F)(F)F)cc3)n2)cc1F [F19, (Z)-1-(2-Fluoro-4-(1-(4-(trifluoromethoxy)phenyl)-1H-1,2,4-triazol-3-yl)phenyl)-3-(4-oxo-3-(1-oxo-1,3-dihydroisobenzofuran-4-yl)thiazolidin-2-ylidene)urea] | 0 | 50 to 100 | D (No activity noticed in this bioassay)
3 | Cc1cc(-c2ncn(-c3ccc(OC(F)(F)C(F)(F)F)cc3)n2)ccc1NC(=O)/N=C1\SCC(=O)N1c1cccc2c1CCO2 [F25, (Z)-1-(3-(2,3-Dihydrobenzofuran-4-yl)-4-oxothiazolidin-2-ylidene)-3-(2-methyl-4-(1-(4-(perfluoroethoxy)phenyl)-1H-1,2,4-triazol-3-yl)phenyl)urea] | 50 to 100 | 50 to 100 | –
4 | Cn1ccc2c(N3C(=O)CS/C3=N\C(=O)Nc3ccc(-c4ncn(-c5ccc(C(F)(F)C(F)(F)F)cc5)n4)cc3F)cccc21 [F30, (Z)-1-(2-Fluoro-4-(1-(4-(perfluoroethyl)phenyl)-1H-1,2,4-triazol-3-yl)phenyl)-3-(3-(1-methyl-1H-indol-4-yl)-4-oxothiazolidin-2-ylidene)urea] | – | – | A (80-100)
5 | O=C(/N=C1\SCC(=O)N1c1cccc2occc12)Nc1ccc(-c2ncn(-c3ccc(OC(F)(F)F)cc3)n2)cc1F [F4, (Z)-1-(3-(Benzofuran-4-yl)-4-oxothiazolidin-2-ylidene)-3-(2-fluoro-4-(1-(4-(trifluoromethoxy)phenyl)-1H-1,2,4-triazol-3-yl)phenyl)urea] | 50 to 100 | 50 to 100 | –
6 | Cc1cc(-c2ncn(-c3ccc(OC(F)(F)C(F)(F)F)cc3)n2)ccc1NC(=O)/N=C1\SCC(=O)N1c1ccc2c(ccn2C)c1 [F31, (Z)-1-(3-(1-Methyl-1H-indol-5-yl)-4-oxothiazolidin-2-ylidene)-3-(2-methyl-4-(1-(4-(perfluoroethoxy)phenyl)-1H-1,2,4-triazol-3-yl)phenyl)urea] | – | – | A (80-100)
7 | Cc1cc(-c2ncn(-c3ccc(OC(F)(F)C(F)(F)F)cc3)n2)ccc1NC(=O)/N=C1\SCC(=O)N1c1ccc2ccccc2c1 [F29, (Z)-1-(2-Methyl-4-(1-(4-(perfluoroethoxy)phenyl)-1H-1,2,4-triazol-3-yl)phenyl)-3-(3-(naphthalen-2-yl)-4-oxothiazolidin-2-ylidene)urea] | 50 to 100 | 50 to 100 | D (No activity noticed in this bioassay)
8 | O=C(/N=C1\SCC(=O)N1c1cccc2ccoc12)Nc1ccc(-c2ncn(-c3ccc(OC(F)(F)F)cc3)n2)cc1F [F5, (Z)-1-(3-(Benzofuran-7-yl)-4-oxothiazolidin-2-ylidene)-3-(2-fluoro-4-(1-(4-(trifluoromethoxy)phenyl)-1H-1,2,4-triazol-3-yl)phenyl)urea] | 50 to 100 | 50 to 100 | –
9 | Cc1cc(-c2ncn(-c3ccc(OC(F)(F)C(F)(F)F)cc3)n2)ccc1NC(=O)/N=C1\SCC(=O)N1c1cccc2c1OCC2 [F28, (Z)-1-(3-(2,3-Dihydrobenzofuran-7-yl)-4-oxothiazolidin-2-ylidene)-3-(2-methyl-4-(1-(4-(perfluoroethoxy)phenyl)-1H-1,2,4-triazol-3-yl)phenyl)urea] | – | – | A (80-100)
10 | O=C(/N=C1\SCC(=O)N1c1cccc2ncccc12)Nc1ccc(-c2ncn(-c3ccc(C(F)(F)C(F)(F)F)cc3)n2)cc1F [F34, (Z)-1-(2-Fluoro-4-(1-(4-(perfluoroethyl)phenyl)-1H-1,2,4-triazol-3-yl)phenyl)-3-(4-oxo-3-(quinolin-5-yl)thiazolidin-2-ylidene)urea] | – | – | A (80-100)
11 | O=C(/N=C1\SCC(=O)N1c1ccc2c(c1)C(=O)OC2=O)Nc1ccc(-c2ncn(-c3ccc(OC(F)(F)F)cc3)n2)cc1F [F11, (Z)-1-(3-(1,3-Dioxo-1,3-dihydroisobenzofuran-5-yl)-4-oxothiazolidin-2-ylidene)-3-(2-fluoro-4-(1-(4-(trifluoromethoxy)phenyl)-1H-1,2,4-triazol-3-yl)phenyl)urea] | 50 to 100 | 0 | –
12 | Cc1cc(-c2ncn(-c3ccc(OC(F)(F)C(F)(F)F)cc3)n2)ccc1NC(=O)/N=C1\SCC(=O)N1c1cccc2ccccc12 [F26, (Z)-1-(2-Methyl-4-(1-(4-(perfluoroethoxy)phenyl)-1H-1,2,4-triazol-3-yl)phenyl)-3-(3-(naphthalen-1-yl)-4-oxothiazolidin-2-ylidene)urea] | 50 to 100 | 50 to 100 | –
13 | Cn1ccc2cc(N3C(=O)CS/C3=N\C(=O)Nc3ccc(-c4ncn(-c5ccc(C(F)(F)C(F)(F)F)cc5)n4)cc3F)ccc21 [F24, (Z)-1-(2-Fluoro-4-(1-(4-(perfluoroethyl)phenyl)-1H-1,2,4-triazol-3-yl)phenyl)-3-(3-(1-methyl-1H-indol-5-yl)-4-oxothiazolidin-2-ylidene)urea] | – | – | D (No activity noticed in this bioassay)
14 | O=C(/N=C1\SCC(=O)N1c1cccc2c1CCC2)Nc1ccc(-c2ncn(-c3ccc(OC(F)(F)F)cc3)n2)cc1F [F10, (Z)-1-(3-(2,3-Dihydro-1H-inden-4-yl)-4-oxothiazolidin-2-ylidene)-3-(2-fluoro-4-(1-(4-(trifluoromethoxy)phenyl)-1H-1,2,4-triazol-3-yl)phenyl)urea] | 50 to 100 | 50 to 100 | –
15 | O=C(/N=C1\SCC(=O)N1c1cccc2c1OCC2)Nc1ccc(-c2ncn(-c3ccc(OC(F)(F)F)cc3)n2)cc1F [F9, (Z)-1-(3-(2,3-Dihydrobenzofuran-7-yl)-4-oxothiazolidin-2-ylidene)-3-(2-fluoro-4-(1-(4-(trifluoromethoxy)phenyl)-1H-1,2,4-triazol-3-yl)phenyl)urea] | 50 to 100 | 50 to 100 | –
16 | Cc1cc(-c2ncn(-c3ccc(OC(F)(F)F)cc3)n2)ccc1NC(=O)/N=C1\SCC(=O)N1c1cc2c(cc1COCC(F)(F)F)OCO2 [F1] | 50 to 100 | 50 to 100 | –
17 | O=C(/N=C1\SCC(=O)N1c1cc2c(cc1COCC(F)(F)F)OCO2)Nc1ccc(-c2ncn(-c3ccc(OC(F)(F)F)cc3)n2)cc1F [F2, (Z)-1-(2-Fluoro-4-(1-(4-(trifluoromethoxy)phenyl)-1H-1,2,4-triazol-3-yl)phenyl)-3-(4-oxo-3-(6-((2,2,2-trifluoroethoxy)methyl)benzo[d][1,3]dioxol-5-yl)thiazolidin-2-ylidene)urea] | 50 to 100 | 50 to 100 | –
18 | O=C(/N=C1\SCC(=O)N1c1cccc2ocnc12)Nc1ccc(-c2ncn(-c3ccc(OC(F)(F)F)cc3)n2)cc1F [F7, (Z)-1-(3-(Benzo[d]oxazol-4-yl)-4-oxothiazolidin-2-ylidene)-3-(2-fluoro-4-(1-(4-(trifluoromethoxy)phenyl)-1H-1,2,4-triazol-3-yl)phenyl)urea] | 50 to 100 | 50 to 100 | –
19 | O=C(/N=C1\SCC(=O)N1c1cc2c(cc1COCC(F)(F)F)OCO2)Nc1ccc(-c2ncn(-c3ccc(S(F)(F)(F)(F)F)cc3)n2)cc1F [F3, (Z)-1-(2-Fluoro-4-(1-(4-(pentafluoro-λ^6-sulfaneyl)phenyl)-1H-1,2,4-triazol-3-yl)phenyl)-3-(4-oxo-3-(6-((2,2,2-trifluoroethoxy)methyl)benzo[d][1,3]dioxol-5-yl)thiazolidin-2-ylidene)urea] | 50 to 100 | 50 to 100 | –
